For 121 molecules, melting point results are on record in a melting point compilation (Tetko et al.).

In turn, `CC1C(C(F)(F)F)OC(=O)N1c1ncccc1N` (stereo unspecified) registered a melting point of 62 to 64 °C.
Take `CC1CSC(=S)N1` (stereo unspecified): the melting point lay in the range of 94 to 96 °C.
For the molecule `O=C(O)Cn1ccc(C(F)(F)F)n1`, the melting point was 58 to 64 °C.
For `O=C(O)C1CCCn2ccnc21` (stereo unspecified) the value was 156 to 158 °C.
For `COC(=O)c1ncon1` the value was 34 to 36 °C.
The result for `O=C1C(=O)N(Cc2ncon2)c2ccc(Br)cc21` reads 197 to 199 °C.
On to `O=C(O)c1c(C(F)(F)F)nn(-c2ccccc2)c1C(F)(F)F`, for which the melting point lay in the range of 156 to 158 °C.
The result for `Cc1sc2nc(-c3ccc(OC(F)F)cc3)nc(Cl)c2c1C` reads 140 to 142 °C; that for `CCc1ccc(C(=O)Nc2ccc(N)cc2Cl)s1`, 120 to 122 °C; that for `NC(=S)COc1ccccc1`, 111 to 115 °C.
For `COc1ccc(S(=O)(=O)Cl)c(C)c1C` the value was 84 to 86 °C; for `Nc1cccc(S(=O)(=O)Nc2ccccc2)c1`, 127 to 129 °C; for `N#Cc1cn(-c2ccc([N+](=O)[O-])cn2)nc1N`, 322 to 324 °C.
For the molecule `CN(C)c1ccc(C#N)cn1`, the melting point was 64 to 66 °C.
In turn, `NCc1cccc(NC(=O)C2CC2)c1` had a melting point of 96 to 98 °C.
For `O=C(O)CCCNS(=O)(=O)c1ccc2c(c1)OCCO2` the value was 120 to 122 °C; for `Nc1cc(F)c(-n2cccn2)cc1N`, 101 to 103 °C; for `Cc1nn(-c2ccc(Br)cc2)cc1C=O`, 111 to 113 °C.
For `Nc1ccc(Sc2ccc(C(F)(F)F)cc2)cc1` the value was 93 to 95 °C; for `O=C(O)CN1CCN(C(=O)OCc2ccccc2)CC1`, 142 to 144 °C; for `Cc1ncc(C(=O)O)c(C(C)C)n1`, 168 to 170 °C.
Take `CCNC(=O)CN(CC)C(=O)CCl`: the melting point is 246 to 248 °C.
Molecule `Cn1c(S)nnc1C1CCC1` returned a melting point of 124 to 126 °C.
In turn, `OC1CCCc2nc(-c3ccccc3)sc21` (stereo unspecified) registered a melting point of 96 to 98 °C.
Consider `O=C(C(=O)c1ccc(Cl)cc1)c1ccc(Cl)cc1`, for which the melting point was in the range of 198 to 200 °C.
The result for `CCCCC(NC(=O)NCC)C(=O)O` (stereo unspecified) reads 96 to 98 °C.
In turn, `COc1cc(C(=O)Oc2ccc(C=O)cc2)cc(OC)c1OC` yielded a melting point of 113 to 115 °C.
Molecule `O=C(O)C1(c2ccc(F)cc2)CC1` returned a melting point of 126 to 128 °C.
Molecule `O=C(O)CCNC(=O)c1ccc2cn[nH]c2c1` had a melting point of 234 to 236 °C.
The result for `COc1ccccc1-c1nnc(S)o1` reads 243 to 245 °C.
Consider `CN1CCc2nc3ccccc3c(C(=O)O)c2C1`, for which the melting point fell in the range of 254 to 256 °C.
The result for `NC(CSCCc1ccccc1)C(=O)O` (stereo unspecified) reads 210 to 212 °C; that for `Nc1ccc(-c2nccn2C(F)F)cc1`, 84 to 86 °C; that for `N#Cc1cc(Br)cs1`, 47 to 49 °C.
For `N#Cc1ccc(S(N)(=O)=O)cc1Cl` the value was 157 to 159 °C; for `COc1cc(Br)ccc1C(N)=O`, 134 to 136 °C; for `COc1ccc(S(=O)(=O)N2CCCCC2)cc1N`, 137 to 139 °C.
The result for `Cc1ccc(C)c(C(=O)CCl)c1` reads 28 to 30 °C; that for `O=C(Nc1ccc(Cl)cn1)OCC(F)(F)F`, 158 to 160 °C; that for `Cc1oc(C(N)=O)cc1C(=O)CCl`, 197 to 199 °C.
Consider `Cc1c(N)cccc1C(=O)N1CCCC1`, for which the melting point was in the range of 162 to 164 °C.
For `CC(=O)CC(=O)N1CCOCC1` the value was 68 to 70 °C; for `O=C(O)c1cc(-c2ccccc2)nc2nc(N3CCCCC3)sc12`, 347 to 349 °C; for `COc1ccc(Cc2nnc(S)o2)cc1OC`, 202 to 204 °C.
The result for `CCCCOc1ccc(C(=O)O)cc1OCCCC` reads 140 to 142 °C; that for `NC(=O)Cn1cc(C(=O)O)nn1`, 198 to 200 °C; that for `CN(c1ccc(O)cc1)S(C)(=O)=O`, 129 to 131 °C.
The result for `O=C(O)c1ccccc1OCc1cccs1` reads 87 to 89 °C.
In the case of `COCCNC(C)(C)CO`, the melting point was 44 to 46 °C.
For `Cc1nnc(Cl)n1-c1ccccc1` the value was 252 to 254 °C; for `O=c1nc(CCl)[nH][nH]1`, 179 to 181 °C.
For `CCc1ccc(-c2noc(S)n2)cc1` the value was 159 to 161 °C.
For `CC1C(=O)NC1c1ccccc1` (stereo unspecified) the value was 92 to 94 °C; for `Nc1ccccc1C(=O)NC1CC1`, 135 to 136 °C.
For `CC1CCCC(C)N1C(=O)COc1ccc(C(=O)O)cc1` (stereo unspecified), the melting point lay in the range of 205 to 215 °C.
Consider `C=CCNS(=O)(=O)Cc1ccc(N)cc1`, for which the melting point was 124 to 126 °C.
For `COc1ccc(/C=N/OCC(=O)O)cc1` the value was 101 to 103 °C; for `CNc1nc(C(=O)O)cs1`, 204 to 206 °C.
The result for `Cc1nn(-c2ccccc2)c2sc(C(=O)O)cc12` reads 234 to 236 °C; that for `COCCOc1ccc(C(N)=S)cc1`, 141 to 143 °C; that for `Nc1cc(C2CC2)nc2ccc(Cl)cc12`, 96 to 98 °C.
For `O=S(=O)(c1ccc2c(c1)CCC2)N1CCNCC1` the value was 90 to 92 °C; for `FC(F)Oc1cccc(-c2ccc(Cl)nn2)c1`, 86 to 88 °C.
`O=C(O)Cc1csc(-c2ccc(Cl)s2)n1` yielded a melting point of 136 to 138 °C.
In the case of `Cc1cc(Br)cc2c(=O)cc[nH]c12`, the melting point lay in the range of 249 to 251 °C.
The molecule `Sc1nnc(-c2ccncc2)n1Cc1ccccc1` had a melting point of 195 to 197 °C.
The result for `O=S(=O)(Cl)c1cnn(C2CCOCC2)c1` reads 59 to 61 °C; that for `Nc1ncc(-c2ccccc2)s1`, 198 to 200 °C; that for `COc1ccc(S(=O)(=O)N2CCc3ccccc32)cc1C(=O)O`, 136 to 138 °C.
For `CC(Oc1ccc(C(=O)O)cn1)c1ccccc1` (stereo unspecified) the value was 113 to 115 °C.
The result for `CC(C)(C)OC(=O)NC(CN)C1CC1` (stereo unspecified) reads 57 to 59 °C.
`N#Cc1ccc(NC2CC2)cc1` displayed a melting point of 79 to 81 °C.
For `O=C(O)Cc1cc2ccccc2[nH]c1=O` the value was 278 to 280 °C; for `O=C(O)CNC(=O)c1ccoc1`, 165 to 167 °C.
The result for `CC(=O)C12CC3CC(C1)CC(C(=O)O)(C3)C2` reads 123 to 125 °C; that for `O=C(O)c1ccc(-n2cc(Br)cn2)nn1`, 209 to 211 °C.
The result for `CCOC(=O)c1ncn(-c2ccccc2)n1` reads 49 to 51 °C.
On to `Cc1cc(F)ccc1-n1cc(O)c(C(=O)O)n1`, for which the melting point was in the range of 149 to 151 °C.
`Cn1nc[nH]c1=O` returned a melting point of 169 to 171 °C.
For `CC(O)(C(=O)O)c1cccc(F)c1` (stereo unspecified) the value was 99 to 101 °C; for `O=c1cc[nH]c2c(Br)cccc12`, 173 to 175 °C.
For `CCc1ccc(C(=O)O)cc1CC` the value was 100 to 102 °C; for `Cc1nc2c(c(C)c1CC(=O)O)c(=O)[nH]n2C`, 239 to 241 °C; for `Cc1cc(S(=O)(=O)Cl)ccc1OCCCC(=O)O`, 135 to 137 °C.
For `O=C(O)C1CCCN(C(=O)c2ccccn2)C1` (stereo unspecified) the value was 167 to 169 °C.
With `Nc1nc2ccc(Oc3ccccc3)cc2s1`, the melting point was 159 to 161 °C.
For `CCc1cccc2c(C3CCNCC3)c[nH]c12` the value was 183 to 185 °C.
For `NC(=S)c1ccnc(-n2cncn2)c1` the value was 258 to 260 °C; for `O=C(O)CCOc1ccc(F)c(Cl)c1`, 82 to 84 °C; for `O=c1cc(CCl)nc2scnn12`, 183 to 187 °C.
For `Cc1cc(Br)ccc1NS(C)(=O)=O` the value was 144 to 146 °C.
As for `O=[N+]([O-])c1cc(S(=O)(=O)Cl)ccc1Br`, the melting point was in the range of 53 to 55 °C.
For `Nc1ccc(CSc2ccccn2)cc1` the value was 103 to 105 °C; for `O=C(O)CCN1C(=O)NC2(CCCC2)C1=O`, 167 to 169 °C.
For `CC(Br)C(=O)c1ccc2c(c1)CCC(=O)N2` (stereo unspecified) the value was 193 to 195 °C; for `NNC(=O)CSc1ccc(Cl)cc1`, 100 to 102 °C.
With `CC(C)c1ccc(N)c(C(=O)O)c1`, the melting point lay within 96 to 98 °C.
The result for `Cc1nn(CC(=O)OC(C)C)c(C)c1C=O` reads 104 to 106 °C; that for `CN1CCCCC/C1=N/S(=O)(=O)c1ccc(N)cc1`, 223 to 225 °C; that for `OCc1ccc(OCc2cccs2)cc1`, 68 to 70 °C.
For `CCNc1cc2c(nn1)CCNC2`, the melting point fell in the range of 140 to 142 °C.
`Cc1ccc(NC(=O)C(=O)NN)cc1C` returned a melting point of 182 to 184 °C.
The result for `Cc1c(C(=O)O)sc2nc(Cc3ccccc3)[nH]c(=O)c12` reads 342 to 344 °C.
For `CC(C)(C(=O)NO)c1ccccc1` the value was 144 to 146 °C.
In the case of `O=C(O)C1CC(=O)N(CCc2ccccc2)C1` (stereo unspecified), the melting point fell in the range of 188 to 190 °C.
The result for `O=C(O)Cc1c(F)cncc1Cl` reads 99 to 101 °C; that for `O=C(CCl)n1nc2ccccn2c1=O`, 164 to 166 °C.
For the molecule `O=C(O)C1CCCN1C(=O)c1ccc([N+](=O)[O-])o1` (stereo unspecified), the melting point lay in the range of 154 to 156 °C.
For `CC(=O)Nc1cc(N)c(F)cc1F` the value was 104 to 106 °C; for `Cc1cnc(NC(=O)c2ccc(Br)o2)s1`, 190 to 192 °C; for `Cc1ccc(S(=O)(=O)NC(C)C)cc1C(=O)O`, 162 to 164 °C.
For `CCc1ccc(OCc2nnc(S)n2C(C)c2ccccc2)cc1` (stereo unspecified) the value was 143 to 145 °C; for `COc1ccnc(NCc2cccc(C(=O)O)c2)n1`, 219 to 221 °C.
For `Nc1ccc(S(=O)(=O)N=C2CCCCCN2)cc1` the value was 115 to 117 °C; for `COc1ccc(-c2noc(CCCC(=O)O)n2)cc1`, 109 to 111 °C; for `O=C1c2ccccc2C(=O)N1CC1(CBr)CCCC1`, 68 to 70 °C.
`O=C(O)CN1C(=O)c2ccccc2C(F)(F)C1=O`: the melting point lay in the range of 203 to 205 °C.
For the molecule `Fc1ccc(-n2c(S)nc3ccccc32)cc1`, the melting point was 237 to 239 °C.
Molecule `COc1cc(C=O)ccc1OCc1ccc(Cl)cc1Cl` yielded a melting point of 114 to 116 °C.
For `O=C(Nc1ccc(O)c(C(=O)O)c1)c1cc(Cl)cc(Cl)c1` the value was 288 to 290 °C; for `Nc1ccc(Cl)cc1-n1cccc1`, 92 to 94 °C.
